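Cells were grown in 96-well plates and exposed to each compound for 48 hours at five concentrations; endpoints were interpolated linearly between bracketing concentrations, or set to the highest concentration if not reached. Abbreviation: GI50, concentration required for 50% inhibition of growth.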 Activity calls are given as the source filed them. Cut-off read from the data, not from the text of the source: active = GI50 up to about 1.1 µM and inactive = higher.
Legend:
Assay in all cases: NCI tumour cell line growth inhibition, 48 h
CAKI-1 = system: CAKI-1
CCRF-CEM = system: CCRF-CEM
COLO 205 = system: COLO 205
DU-145 = system: DU-145
EKVX = system: EKVX
HCT-15 = system: HCT-15
HOP-92 = system: HOP-92
MCF7 = system: MCF7
NCI-H522 = system: NCI-H522
SF-295 = system: SF-295
SK-MEL-28 = system: SK-MEL-28
SN12C = system: SN12C
SR = system: SR
SW-620 = system: SW-620
T47D = system: T47D
TK-10 = system: TK-10
UACC-62 = system: UACC-62
HOP-62 = system: HOP-62
LOX IMVI = system: LOX IMVI
OVCAR-3 = system: OVCAR-3

SMILES | GI50 (CAKI-1) | GI50 (CCRF-CEM) | GI50 (COLO 205) | GI50 (DU-145) | GI50 (EKVX) | GI50 (HCT-15) [µM] | GI50 (HOP-92) | GI50 (MCF7) | GI50 (NCI-H522) | GI50 (SF-295) | GI50 (SK-MEL-28) | GI50 (SN12C) | GI50 (SR) | GI50 (SW-620) | GI50 (T47D) | GI50 (TK-10) | GI50 (UACC-62) | GI50 (HOP-62) | GI50 (LOX IMVI) | GI50 (OVCAR-3)
O=c1c2cccnc2[s+]([O-])n1Cc1ccccc1 (centres undefined) | > 100 µM (inactive) | 3.01 µM (inactive) | > 100 µM (inactive) | > 100 µM (inactive) | > 100 µM (inactive) | > 100 | > 100 µM (inactive) | > 100 µM (inactive) | > 100 µM (inactive) | > 100 µM (inactive) | > 100 µM (inactive) | > 100 µM (inactive) | > 100 µM (inactive) | > 100 µM (inactive) | > 100 µM (inactive) | > 100 µM (inactive) | > 100 µM (inactive) | – | – | –
COc1cc2c(C)cc(O)cc2c2cc(O)c(C)cc12 | 11.7 µM (inactive) | 2.78 µM (inactive) | 9.91 µM (inactive) | 10.9 µM (inactive) | 11.7 µM (inactive) | 8.55 | 12 µM (inactive) | 10.4 µM (inactive) | 13.7 µM (inactive) | 12.9 µM (inactive) | – | 9.84 µM (inactive) | 1.53 µM (inactive) | 10.2 µM (inactive) | 10.1 µM (inactive) | 13.3 µM (inactive) | 12 µM (inactive) | 5.57 µM (inactive) | 2.23 µM (inactive) | 12 µM (inactive)
COC(=O)[C@H](Cc1ccccc1)NP(=O)(O)OCC1OC(n2cc(C)c(=O)[nH]c2=O)CC1N=[N+]=[N-] (some centres undefined) | > 100 µM (inactive) | > 100 µM (inactive) | > 100 µM (inactive) | > 100 µM (inactive) | > 100 µM (inactive) | > 100 | > 100 µM (inactive) | > 100 µM (inactive) | > 100 µM (inactive) | > 100 µM (inactive) | > 100 µM (inactive) | > 100 µM (inactive) | > 100 µM (inactive) | > 100 µM (inactive) | > 100 µM (inactive) | > 100 µM (inactive) | – | > 100 µM (inactive) | > 100 µM (inactive) | > 100 µM (inactive)
CCOC(=O)C1=C(C)OC2(O)C=CC(O)=C3C(=O)N(c4ccccc4)C(=O)C312 (centres undefined) | 48.8 µM (inactive) | – | 43.1 µM (inactive) | 36.7 µM (inactive) | 54 µM (inactive) | 30.6 | 21 µM (inactive) | 29.6 µM (inactive) | 18.5 µM (inactive) | > 100 µM (inactive) | 22.5 µM (inactive) | 40.7 µM (inactive) | 18.9 µM (inactive) | – | 45.1 µM (inactive) | 37.4 µM (inactive) | 29.9 µM (inactive) | 53.5 µM (inactive) | 21.8 µM (inactive) | 61.9 µM (inactive)
Nn1c(CCCCCCCCc2nnc(-c3c(O)ccc4ccccc34)n2N)nnc1-c1c(O)ccc2ccccc12 | > 100 µM (inactive) | – | > 100 µM (inactive) | > 100 µM (inactive) | – | > 100 | > 100 µM (inactive) | > 100 µM (inactive) | > 100 µM (inactive) | > 100 µM (inactive) | > 100 µM (inactive) | > 100 µM (inactive) | > 100 µM (inactive) | > 100 µM (inactive) | > 100 µM (inactive) | > 100 µM (inactive) | > 100 µM (inactive) | > 100 µM (inactive) | > 100 µM (inactive) | > 100 µM (inactive)
N=C(N)NC(=N)Nc1c(F)c(F)c(F)c(F)c1F | > 100 µM (inactive) | – | 54 µM (inactive) | > 100 µM (inactive) | 44.1 µM (inactive) | > 100 | 36.7 µM (inactive) | 49.4 µM (inactive) | 93.8 µM (inactive) | > 100 µM (inactive) | > 100 µM (inactive) | > 100 µM (inactive) | 17.3 µM (inactive) | > 100 µM (inactive) | 61.8 µM (inactive) | 95.9 µM (inactive) | > 100 µM (inactive) | > 100 µM (inactive) | – | > 100 µM (inactive)
